We go through 13 molecules from patent US20030119826A1, “Neuroprotective treatment methods using selective iNOS inhibitors” (Pharmacia Corporation, priority 2001, published 2003).

The structures appear in SMILES notation. Counter-ions that a name gives are not always drawn. Like-named read-outs stand apart in the source and are kept apart here. Where only a bound is given, the exact number is not on record here.

Series [1] concerns Human Cartilage explants, IL-1β-induced nitric oxide synthase (nitrite production). As to the kind of experiment: Human cartilage explant assay (nitrite production, IL-1β induced). The format is cell-based. As to conditions: inhibition of nitrite production, IL-1β stimulated explants. How it is done: Bone pieces are rinsed twice with Dulbecco's Phosphate Buffered Saline (GibcoBRL) and once with Dulbecco's Modified Eagles Medium (GibcoBRL) and placed into a petri dish with phenol red free Minimum Essential Medium (MEM) (GibcoBRL). Cartilage was cut into small explants of approximately 15-45 mg in weight and one or two explants per well are placed into either 96 or 48 well culture plates with 200-500 μL of culture media per well. The culture media was either a custom modification of Minimum Essential Medium(Eagle) with Earle's salts (GibcoBRL) prepared without L-Arginine, without L-Glutamine and without phenol red or a custom modification of serumless Neuman and Tytell (GibcoBRL) medium prepared without L-arginine, without insulin, without ascorbic acid, without L-glutamine and without phenol red. Both are supplemented before use with 100 μM L-Arginine (Sigma), 2 mM L-glutamine, 1X HL-1 supplement (BioWhittaker), […] ascorbic acid (Sigma) and 150 pg/ml recombinant human IL-1β (RD Systems) to induce nitric oxide synthase. Compounds are then added in 10 μL aliquots and the explants incubated at 37° C. with 5% CO2 for 18-24 hours. The day old supernatant is then discarded and replaced with fresh culture media containing recombinant human IL-1β and compound and incubated for another 20-24 hours. […] All samples are done in quadruplicate. Unstimulated controls are cultured in media in the absence of recombinant human IL-1β. IC50 values (Table I)are determined from plotting the percent inhibition of nitrite production at six different concentrations of inhibitor.

The test system of series [2] is LPS-induced increase in plasma nitrite/nitrate levels. Briefly: Endotoxin (LPS)-treated rats, plasma nitrite/nitrate levels. The format is in vivo, rat. As to conditions: oral administration, plasma nitrite/nitrate 5 hours post-treatment. How it is done:
Plasma nitrite/nitrate levels can be determined 5 hours post-treatment.

For series [3], the system named is retinal ganglion cells. As to conditions: rats with chronic moderately elevated IOP, cited from earlier work.
[4] abbreviates: Rattus norvegicus, read-out: ED50.

In general, IC50 refers to the concentration at which inhibition is half-maximal. Turning to `N=C1CCCC[C@H](CCCC[C@H](N)C(=O)O)N1` [Example X, ([…]S,2S)-[…]-aminohexahydro-7-imino-1H-azepine-2-hexanoic acid, trihydrate hydrochloride], the IC50 in series [1] (Homo sapiens) is < 10000 nM.

For orientation: ED50 means the midpoint of the dose-response relation. For `CC(=N)NC/C=C\CC[C@](C)(N)C(=O)O.Cl.Cl` [Example LL, (2S,5Z)-2-amino-2-methyl-7-[(1-iminoethyl)amino]-5-heptenoic acid, dihydrochloride], the ED50 in series [2] (setting [4]) was 0.3 mg/kg. It took 800 nM to reach half-maximal inhibition in series [1] (Homo sapiens) (IC50). As to `CC(=N)NC/C(F)=C\CC[C@H](N)C(=O)Nc1nnn[nH]1` [Example H, (2S,5E)-2-amino-6-fluoro-7-[(1-iminoethyl)amino]-N-(1H-tetrazol-5-yl) 5-heptenamide, dihydrochloride], in series [2] (setting [4]), the ED50 is < 0.3 mg/kg. Regarding `N=C1CCCC[C@H](CCCC[C@@H](N)C(=O)O)N1` [Example V, ([…]R,2S)-[…]-aminohexahydro-7-imino-1H-azepine-2-hexanoic acid, trihydrate hydrochloride], the ED50 in series [2] (setting [4]) is < 3 mg/kg. Besides, the IC50 in series [1] (Homo sapiens) is < 10000 nM. In series [1] (Homo sapiens), `CC(=N)NCC(F)=CCC[C@H](N)C(=O)O` (mixture of isomers) [Example B, (2S,5E/Z)-2-amino-6-fluoro-7-[(1-iminoethyl)amino]-5-heptenoic acid, dihydrochloride] came in with an IC50 of 200 nM. As for `N=C1CCCC[C@@H](CCCC[C@H](N)C(=O)O)N1` [Example W, ([…]S,2R)-[…]-aminohexahydro-7-imino-1H-azepine-2-hexanoic acid, trihydrate hydrochloride], the ED50 in series [2] (setting [4]) was > 10 mg/kg. The IC50 in series [1] (Homo sapiens) is > 30000 nM. With `CC(=N)NC/C(F)=C\CC[C@H](N)C(=O)O` [Example A, (2S,5E)-2-amino-6-fluoro-7-[(1-iminoethyl)amino]-5-heptenoic acid, dihydrochloride, monohydrate], the ED50 is < 0.1 mg/kg in series [2] (setting [4]) and <0.1 mg/kg in series [2] (dihydrochloride, monohydrate). The IC50 in series [1] (Homo sapiens) was determined as 100 nM. Turning to `COC[C@](N)(CSCCNC(C)=N)C(=O)O` [Example J, 2-[[[2-[(1-Iminoethyl)amino]ethyl]thio]methyl]-O-methyl-D-serine, dihydrochloride], in series [1], the IC50 is 8200 nM. Regarding `N=C(N)NN` [aminoguanidine], the “neuroprotection / loss of retinal ganglion cells” value in series [3] is recorded as “blocks loss of retinal ganglion cells”; in series [3] (listed as Aminoguanidine), “provide neuroprotection to retinal ganglion cells”. `CC(=N)NC/C(F)=C\CC[C@](C)(N)C(=O)O.Cl.Cl` [Example HH, (2S,5E)-2-amino-2-methyl-6-fluoro-7-[(1-iminoethyl)amino]-5-heptenoic acid, dihydrochloride]: the ED50 in series [2] (setting [4]) is 0.4 mg/kg. The molecule further registered an IC50 in series [1] (Homo sapiens) of 400 nM. `CC(=N)NC/C(F)=C/CC[C@H](N)C(=O)O` [Example D, (2S,5Z)-2-amino-6-fluoro-7-[(1-iminoethyl)amino]-5-heptenoic acid, trihydrochloride, dihydrate]: the 50% effective dose (ED50) in series [2] (setting [4]) was > 10 mg/kg. The IC50 in series [1] (Homo sapiens) is 2500 nM. As to `N=C1CCCC[C@H](CCCC[C@@H](N)C(=O)O)N1` [Example Y, ([…]R,2S)-[…]-aminohexahydro-7-imino-1H-azepine-2-hexanoic acid, trihydrate hydrochloride], the IC50 in series [1] is < 10000 nM.

By melting point is commonly meant the temperature, or range, at which the solid turns liquid. `CC(=NO)NC/C(F)=C\CC[C@H](N)C(=O)O` [Example G, (2S,5E)-2-amino-6-fluoro-7-[(1-hydroximinoethyl)amino]-5-heptenoic acid]: the melting point was 198 to 200 °C. Further, the ED50 in series [2] (setting [4]) is < 0.1 mg/kg.
